{"source": "paper PMC5584945", "about": "“Evaluation of robenidine analog NCL195 as a novel broad-spectrum antibacterial agent” (PLoS ONE, 2017)", "key": {"MDBK": {"test_system": "MDBK", "assay": "In vitro cytotoxicity, WST-1", "type": "cell-based, bovine", "conditions": "Bos taurus, 24 h exposure, read-out: IC50 values ± SEM", "source_text": "In order to ensure minimal off target mammalian cell cytotoxicity, we assayed NCL812, NCL195 and NCL219 for in vitro cytotoxicity using a panel of adherent mammalian cell lines: Caco-2 (human colorectal adenocarcinoma cell line), HEL 299 (non-cancerous human lung fibroblast cell line), Hep G2 (human hepatocellular carcinoma cell line), MDBK (normal bovine kidney cell line) and MCF7 (human mammary gland adenocarcinoma cell line). Cell lines were maintained in Dulbecco’s Modified Eagle’s Medium (DMEM; […] After 24 h incubation, media was removed, washed once with medium without antibiotics and fresh medium supplemented with 10% (vol/vol) FBS was added. […] Following exposure for 24 h, WST-1 reagent was added to each well at a final concentration of 10%. […] The IC50 value for each compound against each cell line was determined via non-linear regression (three parameters) using GraphPad Prism v6 software. The robustness of assays was confirmed with selected cell lines (Hep G2 and MDBK) seeded onto a 96–well Microwell Nunclon Delta Surface plate (Thermo Scientific Nunc; Cat No: 136101) at 5 × 10^4 cells per well."}, "S. pneumoniae D39 [1]": {"test_system": "S. pneumoniae D39", "assay": "Membrane potential, DiOC2(3) fluorescence", "type": "cell-based, Streptococcus pneumoniae", "conditions": "16 μg/ml, pre-incubated 5 min; versus untreated and ampicillin", "description": "(§1) To further examine the mechanism underlying the perturbation of the cell membrane of S. pneumoniae or S. aureus by the NCL compounds, the membrane potential of the cells was measured by fluorescence spectrometry using (DiOC2(3), essentially as described previously. Briefly, […] cells from an overnight HBA plate were grown in Todd-Hewitt broth supplemented with 1% yeast extract (THY) at 37°C, 5% CO2 until A600 nm = 0.5. […] The cuvette was then placed in a LS 55 Fluorescence Spectrometer (PerkinElmer) set at Ex. 488 nm/Em. 620 nm, with excitation and emission slit widths at 5 nm and 7 nm, respectively). […] All assays were performed at least twice."}, "[2]": {"assay": "LogD by gradient HPLC chromatographic method", "type": "physicochemical", "conditions": "pH 7.4"}, "S. aureus Xen29": {"test_system": "S. aureus Xen29", "assay": "Minimum bactericidal concentration (MBC)", "type": "cell-based", "conditions": "Staphylococcus aureus, 99.9% colony count reduction", "description": "The tray was covered with Breathe-Easy sealing membrane (Z380059, Sigma-Aldrich) and incubated for 16 h overnight at 35°C in an EnSpire Multimode Plate Reader 2300 (PerkinElmer), with data collected every 20 min and 2 sec agitation at 60 rpm between data (A600 nm) acquisitions. The experiment was repeated using the luminescent D39LUX strain on a Cytation 5 Cell Imaging Multi-Mode Reader (BioTek) using IsoplateTM-96 F tray PerkinElmer, 6005020). Kill kinetic assays on S. aureus Xen29 was carried out essentially as described for MIC determination on Cytation 5 Cell Imaging Multi-Mode Reader.\nIn order to determine the MBC of each compound against S. pneumoniae D39 or S. aureus Xen29, 10 μl aliquots from each duplicate well from the MIC assays (starting from the MIC for each compound) was inoculated onto a HBA plate and incubated at 37°C (+ 5% CO2 for S. pneumoniae D39). Plates were examined at 24 and 48 h and the MBC was recorded as the lowest concentration of each test compound at which a 99.9% colony count reduction was observed on the plate."}, "[3]": {"test_system": "vancomycin-resistant enterococci (VRE)", "assay": "MIC, broth micro-dilution (CLSI)", "type": "cell-based, enterococci (porcine isolates)", "conditions": "for MIC50 / MIC90 / MIC: Enterococcus, VRE"}, "S. aureus ATCC49775": {"test_system": "S. aureus ATCC49775", "assay": "Membrane potential, DiOC2(3) fluorescence", "type": "cell-based, Staphylococcus aureus", "conditions": "16 μg/ml, pre-incubated 5 min; versus untreated and ampicillin", "description": "as §1"}, "S. pneumoniae D39 [4]": {"test_system": "S. pneumoniae D39", "assay": "Minimum bactericidal concentration (MBC)", "type": "cell-based", "conditions": "Streptococcus pneumoniae, 99.9% colony count reduction, read-out: MBC"}, "[5]": {"assay": "Kinetic solubility by nephelometry", "type": "physicochemical", "conditions": "kinetic from dmso stock"}, "Hep G2": {"test_system": "Hep G2", "assay": "Real-time cell viability, RealTime-Glo MT", "type": "cell-based, human", "conditions": "2 or 8 μg/ml, up to 20 h post-treatment"}, "[6]": {"conditions": "S3 Table isolates, absence of FBS"}}}
{"smiles": "C/C(=N\\NC(=N)N/N=C(\\C)c1ccc(C(C)(C)C)cc1)c1ccc(C(C)(C)C)cc1", "note": "[NCL219, (E)-N'-((E)-1-(4-(tert-butyl)phenyl)ethylidene)-2-(1-(4-(tert-butyl)phenyl)ethylidene)hydrazine-1-carboximidhydrazide]", "values": [{"measurement": "IC50", "setting": "MDBK", "result": "16 ± 0.2", "unit": "µg/mL"}, {"measurement": "Effect on generated membrane potential", "setting": "S. pneumoniae D39 [1]", "result": "large reduction in the magnitude of the generated membrane potential"}, {"measurement": "chromatographic logD", "setting": "[2]", "result": "> 5.3"}, {"measurement": "MBC", "setting": "S. aureus Xen29", "result": 16, "unit": "µg/mL"}, {"measurement": "Fold increase of MIC range in the presence of 10% FBS", "setting": "[3]; 10% FBS versus no FBS", "result": 8, "unit": "fold"}, {"measurement": "MIC range", "setting": "[3]; 20 isolates", "result": "1 to 2", "unit": "µg/mL"}, {"measurement": "MIC50", "setting": "[3]; S3 Table isolates, 10% FBS", "result": 8, "unit": "µg/mL"}, {"measurement": "MIC90", "setting": "[3]; S3 Table isolates, 10% FBS", "result": 16, "unit": "µg/mL"}, {"measurement": "MIC50", "setting": "[3]; [6]", "result": 2, "unit": "µg/mL"}, {"measurement": "MIC90", "setting": "[3]; [6]", "result": 2, "unit": "µg/mL"}, {"measurement": "MIC", "setting": "[3]; VRE 1 (49 FR), 10% FBS", "result": 16, "unit": "µg/mL"}, {"measurement": "MIC", "setting": "[3]; VRE 1 (49 FR), absence of FBS", "result": 2, "unit": "µg/mL"}, {"measurement": "MIC", "setting": "[3]; VRE 2 (53 FR), 10% FBS", "result": 8, "unit": "µg/mL"}, {"measurement": "MIC", "setting": "[3]; VRE 2 (53 FR), absence of FBS", "result": 2, "unit": "µg/mL"}, {"measurement": "MIC", "setting": "[3]; VRE 3 (55 FR), 10% FBS", "result": 8, "unit": "µg/mL"}, {"measurement": "MIC", "setting": "[3]; VRE 3 (55 FR), absence of FBS", "result": 2, "unit": "µg/mL"}, {"measurement": "MIC", "setting": "[3]; VRE 4 (57 FR), 10% FBS", "result": 8, "unit": "µg/mL"}, {"measurement": "MIC", "setting": "[3]; VRE 4 (57 FR), absence of FBS", "result": 2, "unit": "µg/mL"}, {"measurement": "MIC", "setting": "[3]; VRE5 (58 FR), 10% FBS", "result": 8, "unit": "µg/mL"}, {"measurement": "MIC", "setting": "[3]; VRE5 (58 FR), absence of FBS", "result": 2, "unit": "µg/mL"}, {"measurement": "MIC", "setting": "[3]; VRE 6 (59 FR), 10% FBS", "result": 8, "unit": "µg/mL"}, {"measurement": "MIC", "setting": "[3]; VRE 6 (59 FR), absence of FBS", "result": 2, "unit": "µg/mL"}, {"measurement": "MIC", "setting": "[3]; VRE 7 (270 G), 10% FBS", "result": 16, "unit": "µg/mL"}, {"measurement": "MIC", "setting": "[3]; VRE 7 (270 G), absence of FBS", "result": 2, "unit": "µg/mL"}, {"measurement": "MIC", "setting": "[3]; VRE 8 (277 G), 10% FBS", "result": 8, "unit": "µg/mL"}, {"measurement": "MIC", "setting": "[3]; VRE 8 (277 G), absence of FBS", "result": 1, "unit": "µg/mL"}, {"measurement": "MIC", "setting": "[3]; VRE 9 (61 FR), 10% FBS", "result": 8, "unit": "µg/mL"}, {"measurement": "MIC", "setting": "[3]; VRE 9 (61 FR), absence of FBS", "result": 1, "unit": "µg/mL"}, {"measurement": "MIC", "setting": "[3]; VRE 10 (62 FR), 10% FBS", "result": 16, "unit": "µg/mL"}, {"measurement": "MIC", "setting": "[3]; VRE 10 (62 FR), absence of FBS", "result": 1, "unit": "µg/mL"}, {"measurement": "MIC", "setting": "[3]; VRE 11 (284 G), 10% FBS", "result": 8, "unit": "µg/mL"}, {"measurement": "MIC", "setting": "[3]; VRE 11 (284 G), absence of FBS", "result": 2, "unit": "µg/mL"}, {"measurement": "MIC", "setting": "[3]; VRE 12 (290 G), 10% FBS", "result": 8, "unit": "µg/mL"}, {"measurement": "MIC", "setting": "[3]; VRE 12 (290 G), absence of FBS", "result": 2, "unit": "µg/mL"}, {"measurement": "MIC", "setting": "[3]; VRE 13 (251 G), 10% FBS", "result": 8, "unit": "µg/mL"}, {"measurement": "MIC", "setting": "[3]; VRE 13 (251 G), absence of FBS", "result": 2, "unit": "µg/mL"}, {"measurement": "MIC", "setting": "[3]; VRE 14 (252 G), 10% FBS", "result": 8, "unit": "µg/mL"}, {"measurement": "MIC", "setting": "[3]; VRE 14 (252 G), absence of FBS", "result": 2, "unit": "µg/mL"}, {"measurement": "MIC", "setting": "[3]; VRE 15 (63 FR), 10% FBS", "result": 8, "unit": "µg/mL"}, {"measurement": "MIC", "setting": "[3]; VRE 15 (63 FR), absence of FBS", "result": 2, "unit": "µg/mL"}, {"measurement": "MIC", "setting": "[3]; VRE 16 (60 FR), 10% FBS", "result": 8, "unit": "µg/mL"}, {"measurement": "MIC", "setting": "[3]; VRE 16 (60 FR), absence of FBS", "result": 2, "unit": "µg/mL"}, {"measurement": "MIC", "setting": "[3]; VRE 17 (45 FR), 10% FBS", "result": 8, "unit": "µg/mL"}, {"measurement": "MIC", "setting": "[3]; VRE 17 (45 FR), absence of FBS", "result": 2, "unit": "µg/mL"}, {"measurement": "MIC", "setting": "[3]; VRE 18 (69 W), 10% FBS", "result": 8, "unit": "µg/mL"}, {"measurement": "MIC", "setting": "[3]; VRE 18 (69 W), absence of FBS", "result": 2, "unit": "µg/mL"}, {"measurement": "MIC", "setting": "[3]; VRE 19 (70 W), 10% FBS", "result": 8, "unit": "µg/mL"}, {"measurement": "MIC", "setting": "[3]; VRE 19 (70 W), absence of FBS", "result": 2, "unit": "µg/mL"}, {"measurement": "MIC", "setting": "[3]; VRE 20 (78 W), 10% FBS", "result": 8, "unit": "µg/mL"}, {"measurement": "MIC", "setting": "[3]; VRE 20 (78 W), absence of FBS", "result": 2, "unit": "µg/mL"}, {"measurement": "MIC range", "setting": "[3]; S3 Table isolates, 10% FBS", "result": "8 to 16", "unit": "µg/mL"}, {"measurement": "MIC range", "setting": "[3]; [6]", "result": "1 to 2", "unit": "µg/mL"}, {"measurement": "Effect on generated membrane potential", "setting": "S. aureus ATCC49775", "result": "large reduction in the magnitude of the generated membrane potential"}, {"measurement": "MBC", "setting": "S. pneumoniae D39 [4]", "result": 4, "unit": "µg/mL"}, {"measurement": "solubility", "setting": "[5]; pH 2.0", "result": "0.78 to 1.6", "unit": "µg/mL"}, {"measurement": "solubility", "setting": "[5]; pH 6.5", "result": "0.78 to 1.6", "unit": "µg/mL"}, {"measurement": "Effect on cell viability (real-time)", "setting": "Hep G2", "result": "had a demonstrable effect on viability at 2 μg/ml"}]}
